Source: patent publication US20250163043A1 (TRANSTHERA SCIENCES (NANJING), INC., priority 2021, published 2025)

Columns and labels:
CDK1/CycE1 = CDK1/CycE1 (Homo sapiens, UniProt P06493); experiment: ADP-Glo kinase assay on CDK enzymatic activity, CDK1/CycE1; format: biochemical; conditions: ADP-Glo; 10 concentrations from 10 μM, 4-fold; 60 min room temperature; read-out: CDK1/CycE1/nM (IC50)
In short: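 Compounds in 10-point 4-fold dilutions from 10 μM final, preincubated 10 min with kinase, then substrate/ATP added; 60 min reaction at room temperature. ADP-Glo luminescence read.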

CDK3/CycE1 = CDK3/CycE1 (Homo sapiens, UniProt Q00526); experiment: ADP-Glo kinase assay on CDK enzymatic activity, CDK3/CycE1; format: biochemical; conditions: 10 concentrations from 10 μM, 4-fold, 60 min room temperature
CDK3/CycE1, sequence (Q00526 whole entry, species assumed): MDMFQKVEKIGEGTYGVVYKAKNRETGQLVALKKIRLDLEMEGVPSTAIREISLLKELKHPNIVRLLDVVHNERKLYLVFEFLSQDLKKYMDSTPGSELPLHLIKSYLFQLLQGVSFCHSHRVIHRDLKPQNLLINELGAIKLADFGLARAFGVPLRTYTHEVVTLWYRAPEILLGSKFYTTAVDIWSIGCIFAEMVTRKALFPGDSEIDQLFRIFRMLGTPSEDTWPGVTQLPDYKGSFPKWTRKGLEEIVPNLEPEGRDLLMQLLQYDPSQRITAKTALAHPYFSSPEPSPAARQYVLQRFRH
CDK3/CycE1, sequence (P24864 whole entry partner, species assumed): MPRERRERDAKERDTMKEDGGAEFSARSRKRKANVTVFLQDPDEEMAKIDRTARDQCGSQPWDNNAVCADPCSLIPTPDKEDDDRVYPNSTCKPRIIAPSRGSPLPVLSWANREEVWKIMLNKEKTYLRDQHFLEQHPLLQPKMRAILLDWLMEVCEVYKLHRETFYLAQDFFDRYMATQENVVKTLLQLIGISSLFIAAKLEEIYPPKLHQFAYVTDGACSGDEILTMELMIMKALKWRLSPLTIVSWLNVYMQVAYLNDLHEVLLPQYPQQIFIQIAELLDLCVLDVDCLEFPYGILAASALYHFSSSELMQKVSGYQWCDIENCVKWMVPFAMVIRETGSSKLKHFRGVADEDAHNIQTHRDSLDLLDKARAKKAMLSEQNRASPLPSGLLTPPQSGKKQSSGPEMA
In short: (§1)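 IC50 values derive from luminescent ADP detection (ADP-Glo) after a 60 min room-temperature kinase reaction with CDK tide and ATP. Dose range: 10 μM down in 4-fold steps, ten points.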

CDK9/CycT1 = CDK9/CycT1 (Homo sapiens, UniProt P50750); experiment: ADP-Glo kinase assay on CDK enzymatic activity, CDK9/CycT1; format: biochemical; conditions: 10 concentrations from 10 μM, 4-fold, 60 min room temperature
CDK9/CycT1, sequence (P50750 whole entry): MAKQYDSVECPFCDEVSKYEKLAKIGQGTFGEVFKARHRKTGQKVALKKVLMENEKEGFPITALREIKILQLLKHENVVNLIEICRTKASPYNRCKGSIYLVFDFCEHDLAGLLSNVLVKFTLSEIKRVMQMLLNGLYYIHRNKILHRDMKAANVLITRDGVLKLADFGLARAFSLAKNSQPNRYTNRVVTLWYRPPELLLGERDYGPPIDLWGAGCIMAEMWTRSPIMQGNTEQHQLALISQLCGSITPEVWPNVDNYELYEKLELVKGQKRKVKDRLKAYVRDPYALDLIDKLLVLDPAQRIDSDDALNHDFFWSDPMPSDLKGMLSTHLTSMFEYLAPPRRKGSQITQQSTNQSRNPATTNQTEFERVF
CDK9/CycT1, sequence (O60563 whole entry partner): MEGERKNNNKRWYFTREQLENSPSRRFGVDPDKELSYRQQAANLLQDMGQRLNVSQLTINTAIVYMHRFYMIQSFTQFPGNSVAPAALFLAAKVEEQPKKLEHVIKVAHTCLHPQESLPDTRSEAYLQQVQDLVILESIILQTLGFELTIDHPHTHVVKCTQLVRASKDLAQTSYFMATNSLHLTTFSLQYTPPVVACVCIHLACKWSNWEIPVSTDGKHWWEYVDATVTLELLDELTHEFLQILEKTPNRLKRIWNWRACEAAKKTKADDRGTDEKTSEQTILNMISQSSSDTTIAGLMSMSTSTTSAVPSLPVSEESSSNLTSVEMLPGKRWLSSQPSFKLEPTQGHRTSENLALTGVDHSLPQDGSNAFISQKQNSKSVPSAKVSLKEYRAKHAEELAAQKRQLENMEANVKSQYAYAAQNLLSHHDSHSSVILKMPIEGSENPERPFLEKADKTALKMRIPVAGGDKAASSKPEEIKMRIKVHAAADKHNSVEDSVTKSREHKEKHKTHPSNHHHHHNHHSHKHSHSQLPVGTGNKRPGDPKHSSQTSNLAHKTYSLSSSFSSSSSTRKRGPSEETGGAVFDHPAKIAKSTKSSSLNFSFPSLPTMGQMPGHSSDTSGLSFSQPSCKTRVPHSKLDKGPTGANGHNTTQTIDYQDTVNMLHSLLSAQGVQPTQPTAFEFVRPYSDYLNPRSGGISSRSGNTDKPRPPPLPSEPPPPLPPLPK
In short: as §1

[1] = test system: NCI-H929 (human myeloma cells); experiment: CCK-8 cell proliferation assay, NCI-H929; format: cell-based; conditions: 72 h incubation, 11 concentrations from 5000 nM, 3-fold
Protocol: Test samples: the compounds of the present invention, having structures shown above.
RMPI 1640, Fetal Bovine Serum (FBS), a CCK-8 method cell proliferation assay kit, DMSO (dimethyl sulfoxide), a 96-well cell culture plate, an Iscov'Modified Dulbecco's culture medium (IMDM), a multifunctional microplate reader,
MV-4-11 (human myelomonocytic leukemia cells) and NCI-H929 (human myeloma cells).
The compounds were dissolved in DMSO and diluted 3-fold in the 96-well plate to obtain stock solutions with 11 concentration gradients. Each cell was inoculated into a 96-well plate, and the diluted compound stock solution was added to the 96-well plate to obtain a series of 11 concentration gradients of compound solutions with final concentrations of 5000 nM starting and 3-fold gradient decreasing, wherein the final DMSO content was […]. There was a medium containing 1‰ DMSO in the negative control well. The treated cells were incubated at 37° C. with 5% CO2 and 95% humidity, wherein MV-4-11 were incubated for 24 h and NCI-H929 for 72 h. After incubation was completed, each well was added with 10 μL of CCK-8 reagent, incubated for 1-3 h at room temperature and placed in the microplate reader, and the absorbance was read at 450 nm.
The inhibition rate was calculated according to the following formula: […]
ODcmpd: compound absorbance; ODpositive: average value of the absorbance of positive control without compound; ODvehicle: average value of the absorbance of solvent vehicle control.
IC50 values were fitted using GraphPad 7.0 based on inhibition rates of compounds at different concentrations.

CDK2/CycA2 = CDK2/CycA2 (Homo sapiens, UniProt P24941); experiment: ADP-Glo kinase assay on CDK enzymatic activity, CDK2/CycA2; format: biochemical; conditions: 10 concentrations from 10 μM, 4-fold, 60 min room temperature
In short: as §1

CDK5/p25NCK = CDK5/p25NCK (Homo sapiens, UniProt Q00535); experiment: ADP-Glo kinase assay on CDK enzymatic activity, CDK5/p25NCK; format: biochemical; conditions: 10 concentrations from 10 μM, 4-fold, 60 min room temperature
CDK5/p25NCK, sequence (Q00535 whole entry, species assumed): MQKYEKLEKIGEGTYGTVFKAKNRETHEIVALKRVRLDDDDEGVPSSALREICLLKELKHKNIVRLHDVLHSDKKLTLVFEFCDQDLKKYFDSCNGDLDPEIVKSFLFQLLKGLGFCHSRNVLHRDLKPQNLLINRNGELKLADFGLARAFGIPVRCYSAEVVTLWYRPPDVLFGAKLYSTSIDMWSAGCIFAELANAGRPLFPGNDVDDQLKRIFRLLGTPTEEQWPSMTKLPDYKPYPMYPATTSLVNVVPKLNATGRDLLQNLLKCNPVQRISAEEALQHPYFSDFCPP
CDK5/p25NCK, sequence (Q15078 99-307 partner limits assumed, species assumed): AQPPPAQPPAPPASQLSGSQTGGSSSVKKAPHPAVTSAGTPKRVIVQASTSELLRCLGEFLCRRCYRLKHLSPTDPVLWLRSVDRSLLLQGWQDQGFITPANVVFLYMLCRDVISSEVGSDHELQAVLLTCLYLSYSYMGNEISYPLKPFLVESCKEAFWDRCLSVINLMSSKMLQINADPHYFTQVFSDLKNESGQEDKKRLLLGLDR
In short: as §1

CDK1/CycE1, sequence (P06493 whole entry, species assumed): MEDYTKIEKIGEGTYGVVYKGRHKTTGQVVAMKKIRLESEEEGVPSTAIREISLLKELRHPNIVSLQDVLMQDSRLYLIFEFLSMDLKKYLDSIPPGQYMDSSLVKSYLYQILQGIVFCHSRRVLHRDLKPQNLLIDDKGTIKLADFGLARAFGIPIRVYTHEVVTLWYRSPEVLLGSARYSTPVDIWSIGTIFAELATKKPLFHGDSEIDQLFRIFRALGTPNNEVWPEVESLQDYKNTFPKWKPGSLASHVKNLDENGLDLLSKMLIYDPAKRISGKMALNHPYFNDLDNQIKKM
CDK1/CycE1, sequence (P24864 whole entry partner, species assumed): as the sequence (P24864 whole entry partner, species assumed) above

Row | SMILES | IC50 (CDK1/CycE1) | IC50 (CDK3/CycE1) | IC50 (CDK9/CycT1) | IC50 [1] | IC50 (CDK2/CycA2) | IC50 (CDK5/p25NCK)
1 | CC(C)Nc1nc(C#N)cc2cnc(N[C@H]3CCCNC3)nc12 [Compound 55, (S)-8-(isopropylamino)-2-(piperidin-3-ylamino)pyrido[3,4-d]pyrimidine-6-carbonitrile] | 43 nM | 24 nM | 1 nM | 26.1 nM | 60 nM | 56 nM
2 | CC(C)Nc1nc(C#N)cc2cnc(N[C@H]3CC[C@H](N)C3)cc12 [Compound 28, 7-(((1S,3S)-3-aminocyclopentyl)amino)-1-(isopropylamino)-2,6-naphthyridine-3-carbonitrile] | 220 nM | 97 nM | 3 nM | 25 nM | 50 nM | 96 nM
